Measurements published in US20030021772A1 (priority 2001, published 2003).

Experiments:
[1] = tested on: human beings; assay: Adverse effects (headaches) during the jet lag study; format: in vivo; conditions: sublingual NADH 20 mg
Method: (§1) The efficacy of a stabilized, sublingual form of reduced nicotinamide adenine dinucleotide (NADH, available commercially under the name ENADA® from Menuco Corp.) as a treatment for the effects of jet lag and sleep deprivation on human beings was examined. Healthy individuals were treated with NADH on the day following an overnight flight across North America, and the effects of NADH on their cognitive functioning were monitored. Although the sublingual form of NADH was used in these examples, any of the aforementioned forms of NADH could have been employed.
(§2) The subjects in these examples were volunteers between 35 and 55 years of age, and were in good general physical health. […] In addition, subjects were required to have a normal day/night sleep schedule in their home time zone, and to have an Epworth Sleepiness Scale rating >8 at baseline (“baseline” being the testing in San Diego on the day of the flight) (see E. Hoddes et al., Quantification of Sleepiness: A New Approach, Psychophysiology (1973), 10(4):431-6). […]
(§3) Subjects arrived at the San Diego, Calif. test site at 1200 hours on the day of the flight. […] Subjects were transported to the San Diego Airport and flown to Phoenix, Ariz. where they were shuttled to a conference room at a nearby hotel, provided dinner, and readministered the battery of tests at approximately 2030 hours. […]

[2] = tested on: effects of jet lag and sleep deprivation on human beings; assay: Stanford Sleepiness Scale self-report; format: in vivo; conditions: sublingual NADH 20 mg
Method: as §1
The subjects in these examples were volunteers between 35 and 55 years of age, and were in good general physical health. At a screening visit, subjects were urine tested to screen for the use of illicit drugs and pregnancy. Cognitive screening with the Trail Making Test and Symbol Digit Modalities Test (see M. D. Lezak, Neuropsychological Assessment, 3rd ed., Oxford University Press (1995)) was used to exclude subjects with cognitive function test scores>1 SD below the mean for their age. Subjects were required to be gainfully employed, to have completed 14 years of formal education, and to have none of the following conditions: history of substance abuse, obesity (body mass index>30 kg/m^2), air sickness, pregnancy, nicotine use (within 6-months), mental health disorder (within 1 year), or sleep disorder. In addition, subjects were required to have a normal day/night sleep schedule in their home time zone, and to have an Epworth Sleepiness Scale rating >8 at baseline (“baseline” being the testing in San Diego on the day of the flight) (see E. Hoddes et al., Quantification of Sleepiness: A New Approach, Psychophysiology (1973), 10(4):431-6). Subjects were not permitted to be taking antidepressant medications, CNS stimulants, neuroleptics, Ginseng, Gingko Biloba, melatonin, phosphatylcholine, -acetyl carnatene, or other medications/nutritional supplements reported to enhance cognitive functioning within 90 days of the study. During the study, subjects were not permitted to use caffeine, alcohol or to take any prescription or over-the-counter medications known to enhance or depress CNS functioning.
Subjects arrived at the San Diego, Calif. test site at 1200 hours on the day of the flight. The study protocol was reviewed with the subjects and they were then each issued a laptop computer (IBM Thinkpad Model 760) and familiarized with the tests and measures to be used in the study. At approximately 1500 hours subjects were administered the entire battery of tests to establish their baseline performance (“baseline”). Subjects also received training in the method for taking the sublingual tablets. Subjects were transported to the San Diego Airport and flown to Phoenix, Ariz. where they were shuttled to a conference room at a nearby hotel, provided dinner, and readministered the battery of tests at approximately 2030 hours. Subjects were shuttled back to the airport and boarded a flight to Baltimore, Md. at 2230 hours. Thirty minutes into the flight the subjects were instructed to complete a subset of the battery of tests. Subjects were permitted to sleep after completing the tests. The duration of the flight from Phoenix to Baltimore is approximately 4 hours. Furthermore, there is a 3-hour time difference between San Diego and Baltimore. The local time in Baltimore upon arrival was approximately 0600 hours. After breakfast, subjects were shuttled to the Washington, D.C. test site where they arrived at approximately 0800 hours.
(§4) Sublingual NADH 20 mg (4 tablets of sublingual ENADAlert™ 5 mg) or an equal number of identical placebo tablets were administered by study site personnel to the subjects upon their arrival at the Washington test site. At the test site, subjects' activities were carefully monitored to avoid dehydration, exposure to daylight (subjects were kept indoors) and hunger (they were provided breakfast and lunch, which all subjects ate). […]

[3] = tested on: effects of jet lag and sleep deprivation on human beings; assay: Kay Continuous Performance Test (KCPT), sustained attention and vigilance; format: in vivo; conditions: sublingual NADH 20 mg
Method: as §1
The subjects in these examples were volunteers between 35 and 55 years of age, and were in good general physical health. At a screening visit, subjects were urine tested to screen for the use of illicit drugs and pregnancy. […] In addition, subjects were required to have a normal day/night sleep schedule in their home time zone, and to have an Epworth Sleepiness Scale rating >8 at baseline (“baseline” being the testing in San Diego on the day of the flight) (see E. Hoddes et al., Quantification of Sleepiness: A New Approach, Psychophysiology (1973), 10(4):431-6). […]
as §3, §4

[4] = tested on: effects of jet lag and sleep deprivation on human beings; assay: CogScreen Matching to Sample Test; format: in vivo; conditions: sublingual NADH 20 mg; baseline to PM; placebo 1.0; P=0.078
Method: as §1, §2, §3

[5] = tested on: effects of jet lag and sleep deprivation on human beings; assay: ANAM Running Memory Test (vigilance, working memory) after overnight flight; format: in vivo; conditions: sublingual NADH 20 mg
Method: as §1, §2, §3

[6] = tested on: effects of jet lag and sleep deprivation on human beings; assay: CCAB Mark Numbers Test (divided attention); format: in vivo; conditions: sublingual NADH 20 mg
Method: as §1, §2, §3

[7] = tested on: effects of jet lag and sleep deprivation on human beings; assay: CogScreen Visual Sequence Comparison Test (visual perceptual speed and accuracy); format: in vivo; conditions: sublingual NADH 20 mg; PM test vs baseline; placebo 1.4; P=0.026
Method: as §1, §2, §3

[8] = tested on: effects of jet lag and sleep deprivation on human beings; assay: Walter Reed Mood Scale self-report; format: in vivo; conditions: sublingual NADH 20 mg
Method: as §1, §2, §3

[9] = tested on: effects of jet lag and sleep deprivation on human beings; assay: ANAM Math Test (working memory, math reasoning); format: in vivo; conditions: sublingual NADH 20 mg
Method: as §1, §2, §3

[10] = tested on: effects of jet lag and sleep deprivation on human beings; assay: CogScreen Dual Task Test: Tracking Alone (psychomotor functioning); format: in vivo; conditions: sublingual NADH 20 mg, 31% at baseline
Method: as §1, §2, §3

[11] = Stability at acidic pH; format: physicochemical; conditions: pHs below 7, as in the human stomach
Excerpt: Therefore, when used in oral form, these substances must be coated with an acid-stable protective film so that they can survive the stomach environment for subsequent absorption by the intestine. Suitable acid-stable coatings are known in the art and can be applied by a conventional coating process after the active ingredients are formed into a tablet or capsule. Examples of suitable coatings are: cellulose acetate phthalate; polyvinylacetate phthalate; hydroxyl-propyl-methyl cellulose phthalate; methacryllic acid copolymers; fat-wax; shellac; zein; aqua-coating; and surerelease. Another possibility for the coating is a solution of a phthalate and a lack dry substance in isopropanol. An example of a suitable lack dry substance is sold under the name […]™ by Rohm Pharma. Alternatively, a protein coating in an aqueous medium may be applied. However, a sugar-coating should not be used because it will destabilize NADH.

[12] = tested on: effects of jet lag and sleep deprivation on human beings; assay: CogScreen Shifting Attention Test: Instruction Condition (working memory); format: in vivo; conditions: sublingual NADH 20 mg
Method: as §1, §2, §3

Q: Which “adverse effects attributable to treatment” value [1] does the source give for `NC(=O)C1=CN([C@@H]2O[C@H](COP(=O)(O)OP(=O)(O)OC[C@H]3O[C@@H](n4cnc5c(N)ncnc54)[C@H](O)[C@@H]3O)[C@@H](O)[C@H]2O)C=CC1` [NADH, reduced nicotinamide adenine dinucleotide] here?
A: no adverse effects

Q: What about the “subjects reporting an increase in sleepiness compared to baseline” value ([2]; AM test session, placebo 62.5%) of the same compound?
A: 57.1%

Q: And the “subjects with Stanford Sleepiness Scale rating of 1 or 2” value ([2]; AM test, 82% at baseline, placebo identical)?
A: 35%

Q: What about the “subjects with Stanford Sleepiness Scale rating of 3 or more” value ([2]; AM test, placebo identical) of the same compound?
A: 65%

Q: What about the “subjects no longer reporting an increase in sleepiness relative to baseline” value ([2]; PM test session, placebo 25%) of the same compound?
A: 57.7%

Q: What about the “number of subjects with Stanford Sleepiness Scale rating of 1 or 2” value ([2]; PM test, 17 subjects, placebo four, p=0.07) of the same compound?
A: eight

Q: And the “number of subjects with Stanford Sleepiness Scale rating of 3 or more” value ([2]; PM test, 17 subjects, placebo thirteen)?
A: nine

Q: What about the “subjects reporting no sleepiness” value ([2]; afternoon test, with 11 additional subjects (n=46), placebo 18%, P<0.02) of the same compound?
A: 48%

Q: What about the “subjects with normal baseline performance who made two or more errors on KCPT” value ([3]; AM test, 90 min after dosing, placebo 44%) of the same compound?
A: 36%

Q: What about the “subjects who had resumed a normal level of KCPT performance” value ([3]; PM test, placebo 63%, P<0.08) of the same compound?
A: 86%

Q: And the “subjects with omission errors on the KCPT” value ([3]; afternoon, placebo 37%)?
A: 14%

Q: What about the “more correct responses per minute (Matching to Sample throughput)” value [4] of the same compound?
A: 4.9 correct responses per minute

Q: And the “mean accuracy on the Running Memory Test” value ([5]; afternoon (PM) test, placebo 91%)?
A: 96%

Q: What about the “Running Memory accuracy” value ([5]; stable across all three sessions (baseline, AM, PM), 14 subjects, Group x Session P=0.036, placebo dropped 95% to 91%) of the same compound?
A: approximately 96%

Q: What about the “increase of Mark Numbers Test Total Score” value ([6]; PM test, placebo 19.2 points, P=0.011) of the same compound?
A: 77.5 points

Q: What about the “decrease of secondary task reaction time, Mark Numbers Test” value ([6]; baseline to AM, placebo increased by 0.44 seconds, P=0.016) of the same compound?
A: 0.15 s

Q: What about the “more items correctly completed per minute vs baseline (Visual Sequence Comparison throughput)” value [7] of the same compound?
A: 5.4 items per minute

Q: And the “self-reported fatigue and activity level, difference between NADH and placebo groups” value [8]?
A: no significant differences

Q: What about the “ANAM Math Test throughput improvement relative to baseline” value ([9]; AM test, placebo 6%, Group x Session P<0.07) of the same compound?
A: 15%

Q: And the “ANAM Math Test throughput improvement relative to baseline” value ([9]; PM test, placebo 4%)?
A: 11%

Q: And the “subjects with tracking failures” value ([10]; AM test, placebo 41%)?
A: 33%

Q: What about the “subjects with tracking failures” value ([10]; PM test, placebo 29%, P<0.09) of the same compound?
A: 11%

Q: What about the “stability at pHs below 7” value [11] of the same compound?
A: very unstable

Q: What about the “more problems correctly completed per minute vs. baseline (Shifting Attention Test throughput)” value ([12]; AM test vs baseline, placebo 6.8, Group x Session P<0.05) of the same compound?
A: 13.2 problems per minute

Q: What about the “Shifting Attention Test: Instruction Condition accuracy” value ([12]; AM test, 92.5% at baseline, placebo 93% to 91%) of the same compound?
A: 95%
